Results: patent publication US11298355B2 (Aerovate Therapeutics, Inc., priority 2019, dated 2022)

Assay: Thermal stability and polymorphism of imatinib salts
Type: physicochemical
Conditions: imatinib salt forms

Molecule | thermal stability and polymorphic forms
malonate | suitable thermal stability and few or single polymorphic forms
tartrate | suitable thermal stability and few or single polymorphic forms
O=S(=O)(O)CCO [isethionate] | suitable thermal stability and few or single polymorphic forms
malate | suitable thermal stability and few or single polymorphic forms
